Test system: 252836-082-R-J2-PDC tumor spheroids, viability
Test: Anticancer human tumor 252836-082-R-J2-PDC patient-derived head and neck squamous cell carcinoma cell line growth inhibition [PI3K]
Conditions: spheroids with HUVEC and MSC; for IC50: curve of first compound; for viability, T/C: stronger effect = lower value
How it was run: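 Complex 3D spheroids (cancer cells + endothelial HUVEC + mesenchymal stem cells); drug pairs of targeted agent x inavolisib/alpelisib/duvelisib/copanlisib; half-log series from ~Cmax, max 10 microM if Cmax unknown; endpoint viability.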
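Further: spheroids exposed to agents for seven days before readout.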
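Wherever viability, T/C is given: percent of vehicle DMSO control viability so 100% = untreated growth.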

**Q.** For Cn1cnc2c(F)c(Nc3ccc(Br)cc3Cl)c(C(=O)NOCCO)cc21 + CC(Nc1ncnc2nc[nH]c12)c1cc2cccc(Cl)c2c(=O)n1-c1ccccc1, which IC50 (second compound 0.0316 µM) is on record?
**A.** The IC50 was 2200 nM.

**Q.** And the IC50 (second compound 0.1 µM)?
**A.** Its IC50 is 2800 nM.

**Q.** And the IC50 (second compound 0.316 µM)?
**A.** The IC50 was 2610 nM.

**Q.** And the IC50 (second compound 1 µM)?
**A.** The IC50 was 2100 nM.

**Q.** What about the IC50 (second compound 3.16 µM) of the same compound?
**A.** Its IC50 is 1480 nM.

**Q.** What about the IC50 (second compound 10 µM) of the same compound?
**A.** The IC50 was 923 nM.

**Q.** What about the viability, T/C (second compound 0.0316 µM, first compound 0.00949 µM) of the same compound?
**A.** Its viability, T/C is 102%.

**Q.** And the viability, T/C (second compound 0.0316 µM, first compound 0.03 µM)?
**A.** Its viability, T/C is 76.5%.

**Q.** What about the viability, T/C (second compound 0.0316 µM, first compound 0.0949 µM) of the same compound?
**A.** Its viability, T/C is 81.5%.

**Q.** What about the viability, T/C (second compound 0.0316 µM, first compound 0.3 µM) of the same compound?
**A.** The viability, T/C was 92.7%.

**Q.** And the viability, T/C (second compound 0.0316 µM, first compound 0.949 µM)?
**A.** Its viability, T/C is 65.5%.

**Q.** And the viability, T/C (second compound 0.0316 µM, first compound 3 µM)?
**A.** The viability, T/C was 44.2%.

**Q.** And the viability, T/C (second compound 0.1 µM, first compound 0.00949 µM)?
**A.** Its viability, T/C is 89.9%.

**Q.** And the viability, T/C (second compound 0.1 µM, first compound 0.03 µM)?
**A.** Its viability, T/C is 77.2%.

**Q.** And the viability, T/C (second compound 0.1 µM, first compound 0.0949 µM)?
**A.** The viability, T/C was 88.8%.

**Q.** What about the viability, T/C (second compound 0.1 µM, first compound 0.3 µM) of the same compound?
**A.** Its viability, T/C is 95.3%.

**Q.** What about the viability, T/C (second compound 0.1 µM, first compound 0.949 µM) of the same compound?
**A.** The viability, T/C was 74.5%.

**Q.** And the viability, T/C (second compound 0.1 µM, first compound 3 µM)?
**A.** Its viability, T/C is 48.4%.

**Q.** What about the viability, T/C (second compound 0.316 µM, first compound 0.00949 µM) of the same compound?
**A.** The viability, T/C was 88%.

**Q.** And the viability, T/C (second compound 0.316 µM, first compound 0.03 µM)?
**A.** The viability, T/C was 87.2%.

**Q.** And the viability, T/C (second compound 0.316 µM, first compound 0.0949 µM)?
**A.** Its viability, T/C is 88.6%.

**Q.** And the viability, T/C (second compound 0.316 µM, first compound 0.3 µM)?
**A.** Its viability, T/C is 79.3%.

**Q.** What about the viability, T/C (second compound 0.316 µM, first compound 0.949 µM) of the same compound?
**A.** Its viability, T/C is 77.1%.

**Q.** What about the viability, T/C (second compound 0.316 µM, first compound 3 µM) of the same compound?
**A.** The viability, T/C was 46%.

**Q.** And the viability, T/C (second compound 1 µM, first compound 0.00949 µM)?
**A.** The viability, T/C was 89.8%.

**Q.** And the viability, T/C (second compound 1 µM, first compound 0.03 µM)?
**A.** The viability, T/C was 77.3%.

**Q.** What about the viability, T/C (second compound 1 µM, first compound 0.0949 µM) of the same compound?
**A.** The viability, T/C was 85.3%.

**Q.** And the viability, T/C (second compound 1 µM, first compound 0.3 µM)?
**A.** The viability, T/C was 75.6%.

**Q.** What about the viability, T/C (second compound 1 µM, first compound 0.949 µM) of the same compound?
**A.** The viability, T/C was 72%.

**Q.** And the viability, T/C (second compound 1 µM, first compound 3 µM)?
**A.** The viability, T/C was 40.4%.

**Q.** And the viability, T/C (second compound 3.16 µM, first compound 0.00949 µM)?
**A.** Its viability, T/C is 82.1%.

**Q.** What about the viability, T/C (second compound 3.16 µM, first compound 0.03 µM) of the same compound?
**A.** The viability, T/C was 78.5%.

**Q.** What about the viability, T/C (second compound 3.16 µM, first compound 0.0949 µM) of the same compound?
**A.** Its viability, T/C is 64.6%.

**Q.** And the viability, T/C (second compound 3.16 µM, first compound 0.3 µM)?
**A.** The viability, T/C was 66%.

**Q.** What about the viability, T/C (second compound 3.16 µM, first compound 0.949 µM) of the same compound?
**A.** The viability, T/C was 61.3%.

**Q.** What about the viability, T/C (second compound 3.16 µM, first compound 3 µM) of the same compound?
**A.** Its viability, T/C is 38.6%.

**Q.** What about the viability, T/C (second compound 10 µM, first compound 0.00949 µM) of the same compound?
**A.** The viability, T/C was 67.3%.

**Q.** What about the viability, T/C (second compound 10 µM, first compound 0.03 µM) of the same compound?
**A.** Its viability, T/C is 67.1%.

**Q.** What about the viability, T/C (second compound 10 µM, first compound 0.0949 µM) of the same compound?
**A.** The viability, T/C was 64.2%.

**Q.** And the viability, T/C (second compound 10 µM, first compound 0.3 µM)?
**A.** The viability, T/C was 54.4%.

**Q.** And the viability, T/C (second compound 10 µM, first compound 0.949 µM)?
**A.** The viability, T/C was 53.6%.

**Q.** And the viability, T/C (second compound 10 µM, first compound 3 µM)?
**A.** Its viability, T/C is 31.4%.
